Experimental data published in patent publication US12343368B2, “Cleome droserifolia extract and therapeutic or cosmetic use thereof” (ANPJ HEALTHCARE, priority 2019, dated 2025).

Legend:
[1] = Antioxidant activity, cell viability (MTT) after hydrogen peroxide stress; format: cell-based; conditions: mouse, NCTC clone 929 cells, Without H2O2, read-out: Cellular viability (%)
[2] = test system: NCTC clone 929 cell line; test: as above; format: cell-based; conditions: 0.56 mg/ml; for Absorbance Mean: 570 nm
[3] = test system: citrated ovine plasma; test: Coagulant activity in vitro (coagulation time, coagulometer); format: biochemical
Method: The material used is described as follows: • The 6th international standard for unfractionated heparin (WHO 07; 328) • Activated cephaloplastin reagent Dade® Actin®—Siemens • Calcium chloride—Siemens®. • Thermo Scientific coagulometer • Citrated ovine plasma 8.7%. • Aqueous extract of lyophilized Cleome droserifolia The operating protocol is described as follows: The lyophilized extract was dissolved in ultrapure water to obtain a stock concentration of 2 mg/ml. Dilution was carried out to obtain a concentration of 0.6 mg/ml. In a first experiment, 100 μl of each of the following solutions was added to the cuvettes of the coagulometer (n=2): • Lyophilisate solution concentrated at 0.6 mg/ml, • Heparin solution at a concentration of 0.6 IU/ml • Physiological solution for the control group, • Then, 100 μl of sheep plasma was added to all the wells. • After 2 minutes, 100 μl of reactant activated with Cephalosplatin Cade® Actin was added. • After 5 minutes of incubation, 100 μl of calcium chloride solution were added and the coagulation times were recorded.

Compound | viability at 24 h, 0.56 mg/ml [1] | viability at 25 µM ([2]; NCTC clone 929, With H2O2 (25 μM), read-out: Cellular viability (%)) | Absorbance Mean ([2]; With H2O2 (25 μM)) | Absorbance Mean ([2]; Without H2O2) | coagulation time ([3]; heparin) | coagulation time ([3]; heparin 0.6 IU/ml)
O=C1O[C@H]([C@@H](O)CO)C(O)=C1O [ascorbic acid] | 77.6% | 74.4% | 0.3564 | 0.3719 |  | 
Heparin |  |  |  |  | 54.3 s | 54.3 s
